Drawing on US4500525A, “Pharmacologically active pyrazolo/4,3-c/pyridines” (Gruppo Lepetit S.p.A., priority 1982, dated 1985), this text covers Ki for 34 compounds.

Structures are written as SMILES. Where a name gives a salt, the structure may show the parent alone.

This test concerns the target α1 adrenoceptor. Kind of test: displacement of ^3 H-prazosin specifically bound in rat brain homogenate (radioligand binding). Conditions: ^3 H Prazosin binding, Ki calculated from IC50, read-out: K1 (nM) ^3 H Prazosin. The protocol:
The compounds of the invention were tested […] for their ability to compete with labelled ligands of α1, α2 -adrenergic,and dopaminergic receptors. Said tests were made essentially following:
(b) the method described by P. Greengrass et al., European Journal of Pharmacology, Vol. 55, pp. 323-326, (1979), which uses the specific displacement of ^3 H-prazosin specifically bound in rat brain homogenate, for the identification of substances interacting with the so called "α1 "adrenoceptor;
The above mentioned methods are radioligand binding assays and are based on the knowledge that many natural or synthetic physiologically active substances such as neurotransmitters, hormones, and others, specifically link to cellular receptors, generally of proteic nature. They are generally obtained from a tissue or organ of a suitable test-animal after isolation and homogenization of said tissue or organ.
The homogenate is twice centrifugated to separate and partially purify the receptorial fraction (synaptosomes).
The labelled substances employed are known to specifically bind their receptors, so the drug-receptor dissociation constants obtained for each test compound under standard conditions are a measure of their actual binding affinities. The validation of the above methods in predicting a possible pharmacological activity was carried out comparing the in vitro binding constants of a number of […] agonist or antagonist of the adrenergic or dopaminergic system with their in vivo activities. The α1 -adrenergic activity is essentially correlated with a peripheral vasodilatation. The α2 -adrenergic activity is essentially correlated with a hypotensive action of central origin, and the dopaminergic activity is correlated with a neuroleptic action. IC50 values, defined as the drug concentration that cause 50% inhibition of the specific ^3 H ligant binding, are observed by incubating from 5 to 7 different dilutions of the tested compound in duplicate or triplicate. Ki, inhibition constant, values are calculated from the following formula: [formula] wherein IC50 is defined as above, C is the concentration of the ^3 H ligand, and KD is the dissociation constant of the ^3 H ligand-receptor complex.
With `Fc1ccc(-c2n[nH]c3c2CNCC3)cc1` [Example 19, 3-(4-fluorophenyl)-4,5,6,7-tetrahydro-1H-pyrazolo/4,3-c/pyridine], the Ki is 69.2 nM.

On to `Cc1ccc(-c2n[nH]c3c2CNCC3)cc1` [Example 32, 3-(4-methylphenyl)-4,5,6,7-tetrahydro-1H-pyrazolo/4,3-c/pyridine, dihydrochloride], for which the Ki was 92.2 nM.

For the compound `CC(C)n1nc(-c2ccc(F)cc2)c2c1CCNC2` [Example 95, 3-(4-fluorophenyl)-1-(2-methylethyl)-4,5,6,7-tetrahydro-1H-pyrazolo/4,3-c/pyridine, methanesulfonate], the Ki was 32.2 nM.

In the case of `Cn1nc(-c2ccccc2)c2c1CCNC2` [Example 96, 1-methyl-3-phenyl-4,5,6,7-tetrahydro-1H-pyrazolo/4,3-c/pyridine, methanesu lfonate], the Ki is 52 nM.

Consider `Fc1ccc(-c2nn(Cc3ccc(Cl)cc3)c3c2CNCC3)cc1` [Example 103, 1-(4-chlorophenylmethyl)-3-(4-fluorophenyl)-4,5,6,7-tetrahydro-1H-pyrazolo/4,3-c/pyridine, hydrochloride], for which the Ki was 11.1 nM.

As for `COc1ccc(Cn2nc(-c3ccc(F)cc3)c3c2CCNC3)cc1` [Example 105, 3-(4-fluorophenyl)-1-(4-methoxyphenylmethyl)-4,5,6,7-tetrahydro-1H-pyrazolo/4,3-c/pyridine, hydrochloride], the Ki is 6.23 nM.

Regarding `Fc1ccc(-c2nn(Cc3ccc(Cl)c(Cl)c3)c3c2CNCC3)cc1` [Example 108, 1-(3,4-dichlorophenylmethyl)-3-(4-fluorophenyl)-4,5,6,7-tetrahydro-1H-pyrazolo/4,3-c/pyridine, hydrochloride], the Ki is 7.48 nM.

As for `Fc1ccc(-c2nn(CCc3ccccc3)c3c2CNCC3)cc1` [Example 110, 3-(4-fluorophenyl)-1-(2-phenylethyl)-4,5,6,7-tetrahydro-1H-pyrazolo/4,3-c/pyridine, methanesulfonate], the Ki was 40.3 nM.

For `Fc1ccc(-c2nn(CCCc3ccccc3)c3c2CNCC3)cc1` [Example 111, 3-(4-fluorophenyl)-1-(3-phenylpropyl)-4,5,6,7-tetrahydro-1H-pyrazolo/4,3-c/pyridine, methanesulfonate], the Ki was 12.9 nM.

In the case of `CCCn1nc(-c2ccc(F)cc2)c2c1CCNC2` [Example 112, 3-(4-fluorophenyl)-1-n.propyl-4,5,6,7-tetrahydro-1H-pyrazolo/4,3-c/pyridine, methanesulfonate], the Ki was 24.2 nM.

With `CCCCn1nc(-c2ccc(F)cc2)c2c1CCNC2` [Example 113, 3-(4-fluorophenyl)-1-n.butyl-4,5,6,7-tetrahydro-1H-pyrazolo/4,3-c/pyridine, methanesulfonate], the Ki is 17.3 nM.

Take `Fc1ccc(-c2nn(Cc3ccccc3Cl)c3c2CNCC3)cc1` [Example 114, 1-(2-chlorophenylmethyl)-3-(4-fluorophenyl)-4,5,6,7-tetrahydro-1H-pyrazolo/4,3-c/pyridine, methanesulfonate]: the Ki was 17.3 nM.

`CC(c1ccccc1)n1nc(-c2ccc(F)cc2)c2c1CCNC2` (stereo not shown) [Example 116, 3-(4-fluorophenyl)-4,5,6,7-tetrahydro-1-(1-phenylethyl)-1H-pyrazolo/4,3-c/pyridine, methanesulfonate]: the Ki is 7.24 nM.

As to `c1ccc(Cn2nc(-c3ccccc3)c3c2CCNC3)cc1` [Example 117, 4,5,6,7-tetrahydro-3-phenyl-1-phenylmethyl-1H-pyrazolo/4,3-c/pyridine, hydrochloride], the Ki was 38.6 nM.

In the case of `Clc1ccc(-c2nn(Cc3ccccc3)c3c2CNCC3)cc1` [Example 118, 3-(4-chlorophenyl)-4,5,6,7-tetrahydro-1-phenylmethyl)-1H-pyrazolo/4,3-c/pyridine, hydrochloride], the Ki was 14.5 nM.

For `Cc1ccc(-c2nn(Cc3ccccc3)c3c2CNCC3)cc1` [Example 119, 4,5,6,7-tetrahydro-3-(4-methylphenyl)-1-phenylmethyl-1H-pyrazolo/4,3-c/pyridine, hydrochloride], the Ki was 5.86 nM.

As to `CCCCCn1nc(-c2ccc(F)cc2)c2c1CCNC2` [Example 122, 3-(4-fluorophenyl)-4,5,6,7-tetrahydro-1-n.pentyl-1H-pyrazolo/4,3-c/pyridine, methanesulfonate], the Ki was 8.7 nM.

In the case of `CCCCCCn1nc(-c2ccc(F)cc2)c2c1CCNC2` [Example 123, 3-(4-fluorophenyl)-4,5,6,7-tetrahydro-1-n.hexyl-1H-pyrazolo/4,3-c/pyridine, methanesulfonate], the Ki is 13 nM.

Take `CN1CCc2c(c(-c3ccc(F)cc3)nn2Cc2ccccc2)C1` [Example 128, 3-(4-fluorophenyl)-5-methyl-1-phenylmethyl-4,5,6,7-tetrahydro-1H-pyrazolo/4,3-c/pyridine, methanesulfonate]: the Ki is 21.2 nM.

On to `CN1CCc2c(c(-c3ccc(F)cc3)nn2Cc2ccc(Cl)cc2)C1` [Example 132, 1-(4-chlorophenylmethyl)-3-(4-fluorophenyl)-5-methyl-4,5,6,7-tetrahydro-1H-pyrazolo/4,3-c/pyridine, methanesulfonate], for which the Ki is 20.8 nM.

As to `COc1ccc(Cn2nc(-c3ccc(F)cc3)c3c2CCN(C)C3)cc1` [Example 133, 3-(4-fluorophenyl)-1-(4-methoxyphenylmethyl)-5-methyl-4,5,6,7-tetrahydro-1H-pyrazolo/4,3-c/pyridine, hydrochloride], the Ki was 12.4 nM.

As to `CN1CCc2c(c(-c3ccc(F)cc3)nn2Cc2ccc(Cl)c(Cl)c2)C1` [Example 136, 1-(3,4-dichlorophenylmethyl)-3-(4-fluorophenyl)-5-methyl-4,5,6,7-tetrahydro-1H-pyrazolo/4,3-c/pyridine], the Ki was 21.9 nM.

In the case of `CN1CCc2c(c(-c3ccc(F)cc3)nn2CCc2ccccc2)C1` [Example 138, 3-(4-fluorophenyl)-1-(2-phenylethyl)-5-methyl-4,5,6,7-tetrahydro-1H-pyrazolo/4,3-c/pyridine], the Ki was 40.3 nM.

As to `CN1CCc2c(c(-c3ccc(F)cc3)nn2CCCc2ccccc2)C1` [Example 139, 3-(4-fluorophenyl)-1-(3-phenylpropyl)-5-methyl-4,5,6,7-tetrahydro-1H-pyrazolo/4,3-c/pyridine, hydrochloride], the Ki is 20.6 nM.

Regarding `CCCn1nc(-c2ccc(F)cc2)c2c1CCN(C)C2` [Example 140, 3-(4-fluorophenyl)-1-n.propyl-5-methyl-4,5,6,7-tetrahydro-1H-pyrazolo/4,3-c/pyridine, methanesulfonate], the Ki is 73.5 nM.

`CCCCn1nc(-c2ccc(F)cc2)c2c1CCN(C)C2` [Example 141, 3-(4-fluorophenyl)-1-n.butyl-5-methyl-4,5,6,7-tetrahydro-1H-pyrazolo/4,3-c/pyridine, methanesulfonate]: the Ki is 32.8 nM.

Take `CN1CCc2c(c(-c3ccc(F)cc3)nn2Cc2ccccc2Cl)C1` [Example 142, 1-(2-chlorophenylmethyl)-3-(4-fluorophenyl)-5-methyl-4,5,6,7-tetrahydro-1H-pyrazolo/4,3-c/pyridine, methanesulfonate]: the Ki was 36.3 nM.

`CC(c1ccccc1)n1nc(-c2ccc(F)cc2)c2c1CCN(C)C2` (stereo not shown) [Example 144, 3-(4-fluorophenyl)-4,5,6,7-tetrahydro-5-methyl-1-(1-phenylethyl)-1H-pyrazolo/4,3-c/pyridine, hydrochloride]: the Ki is 8.14 nM.

Regarding `CN1CCc2c(c(-c3ccccc3)nn2Cc2ccccc2)C1` [Example 145, 4,5,6,7-tetrahydro-5-methyl-3-phenyl-1-phenylmethyl-1H-pyrazolo/4,3-c/pyridine, methanesulfonate], the Ki is 49.4 nM.

Consider `CN1CCc2c(c(-c3ccc(Cl)cc3)nn2Cc2ccccc2)C1` [Example 146, 3-(4-chlorophenyl)-4,5,6,7-tetrahydro-5-methyl-1-phenylmethyl-1H-pyrazolo/4,3-c/pyridine, methanesulfonate], for which the Ki is 30.9 nM.

Consider `Cc1ccc(-c2nn(Cc3ccccc3)c3c2CN(C)CC3)cc1` [Example 147, 4,5,6,7-tetrahydro-5-methyl-3-(4-methylphenyl)-1-phenylmethyl-1H-pyrazolo/4,3-c/pyridine, methanesulfonate], for which the Ki was 20.1 nM.

In the case of `CCCCCn1nc(-c2ccc(F)cc2)c2c1CCN(C)C2` [Example 150, 3-(4-fluorophenyl))-4,5,6,7-tetrahydro-5-methyl-1-n.pentyl-1H-pyrazolo/4,3-c/pyridine, methanesulfonate], the Ki is 18.3 nM.

Turning to `CCCCCCn1nc(-c2ccc(F)cc2)c2c1CCN(C)C2` [Example 151, 3-(4-fluorophenyl)-4,5,6,7-tetrahydro-1-n.hexyl-5-methyl-1H-pyrazolo/4,3-c/pyridine, methanesulfonate], the Ki was 15.2 nM.

As to `CC(C)N1CCc2c(c(-c3ccc(F)cc3)nn2Cc2ccccc2)C1` [Example 162, 3-(4-fluorophenyl)-5-(2-methylethyl)-1-phenylmethyl-4,5,6,7-tetrahydro-1H-pyrazolo/4,3-c/pyridine], the Ki is 97.6 nM.
